What is called viability, T/C is the result in the treated group divided by that in the control group, in per cent. As a reminder, the pIC50 is the negative decadic logarithm of the IC50, by convention in mol/L.

The values that follow come from PubChem BioAssay AID1963845 (Molecular Pharmacology Branch, DTP, NCI, 2024).

pIC50: −log10 of the molar value. “And” between values parts separate entries of the source, which are not always exact repeats. Equal values may be shown once.

The test system of this assay is 429239-143-T-J1-PDC complex spheroid viability. The experiment in a line: Anticancer human tumor 429239-143-T-J1-PDC patient-derived small cell lung carcinoma cell line growth inhibition [POLQ]. To be noted: for viability, T/C: stronger effect = lower value; for pIC50: curve of compound. The protocol: Multicellular complex tumor spheroid response to Polymerase (POL) inhibitors (novobiocin, ART-558, RP6685) in combination with a variety of drugs and investigational agents in selected tumor cell lines
The POL inhibitors (novobiocin, ART-558, and RP6685) were evaluated both individually and in combination with standard of care and investigational anticancer small molecules within a complex spheroid model of solid tumors. . Complex spheroids include a stromal component modeled by human endothelial cells (HUVEC) and fibroblasts modeled by human mesenchymal stem cells (MSCs). The concentration ranges selected for each drug and investigational agent were based upon clinically achievable concentrations if the clinical Cmax of the agent was known.
Compounds. The drugs and investigational agents: novobiocin (NSC847541), ART-558 (NSC835418), RP-6685 (NSC848927), peposertib (NSC802822), ceralasertib (NSC780249), elimusertib (NSC800525), camonsertib (NSC841442), AZD-1390 (NSC803789), olaparib (NSC753686), talazoparib (NSC767125), rucaparib (NSC756644), sotorasib (NSC818433), MRTX-1133 (NSC836407), SN-38 (NSC673596), topotecan (NSC609699), epotoside (NSC141540), doxorubicin (NSC123127), gemcitabine (NSC613327), 5-fluorouracil (NSC19893), paclitaxel (NSC125973), vemurafenib (NSC761431), MSA-2 (NSC828583), SN-011 (NSC837082), adavosertib (NSC754352), prexasertib (NSC758257), carboplatin (NSC241240) and oxaliplatin (NSC266046), were obtained from the National Cancer Institute (NCI) Developmental Therapeutics Program Chemical Repository (21). The FDA-approved anticancer drug set is available from the Developmental Therapeutics Program at https://dtp.cancer.gov/organization/dscb/obtaining/. […] The stock solutions were prepared in dimethyl sulfoxide (DMSO, Sigma-Aldrich, St. Louis, MO, cat. D2650), except for the platinum compounds which were prepared in saline (Quality Biological, Gaithersburg, MD, cat. 114-055-101), at 800-fold the tested concentration and stored at -70 degrees C prior to their use. All drugs and investigational agents were tested over a range starting from a high concentration at or near the clinical Cmax and decreasing in half-log increments. If the clinical Cmax for an agent had not been determined, the highest concentration tested was 10 microM, except for SN-38, which was tested at a high concentration of 1 microM.
Cell Culture. All cells were maintained in an incubator at 37 degrees C and 5% CO2 with 95% humidity. The PDC lines were cultured according to standard operating procedures established by the NCI PDMR (https://pdmr.cancer.gov). Table 3 of the manuscript, lists the cell lines along with the number of the three cell types plated to form the mct-spheroids and media for tumor cell growth. After thawing, all PDC lines, except 997537-175-T-J1-PDC and 415267-285-R-J2-PDC, were cultured in Matrigel-coated flasks prepared with a working solution of 1X Ham's F-12 nutrient mix, without supplementation (Thermo Fisher Scientific, cat. 11765054), 100 U/mL penicillin-streptomycin (Thermo Fisher Scientific, cat. 15140122), and 2.5% Matrigel (Corning Inc., Corning, NY, cat. 354248) for the first three passages. The two PDC lines 997537-175-T-J1-PDC and 415267-285-R-J2-PDC were cultured on uncoated flasks. The 857933-349-R-J2-PDC line was cultured in 6C/Colon 1B media containing advanced DMEM/F-12 (Thermo Fisher Scientific, cat. 12634028), 10 mM HEPES (Thermo Fisher Scientific, cat. 15630080), 1X GlutaMAX supplement (Thermo Fisher Scientific, cat. 35050061), 0.1 mg/mL primocin (InvivoGen, San Diego, CA, cat. ant-pm-2), 10% defined fetal bovine serum, heat inactivated (HyClone Laboratories Inc., Logan, UT, cat. SH30070.03HI), 50% L-WRN conditioned media (ATCC, cat. CRL-3276), 1.25 mM N-Acetyl-L-cysteine (Sigma-Aldrich, cat. A9165), 10 mM nicotinamide (Sigma-Aldrich, cat. N0636), 1X B-27 supplement (Thermo Fisher Scientific, cat. 17504044), 1X N-2 supplement (Thermo Fisher Scientific, cat. […]
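Further: luminescence signal used as surrogate measure of viable cells; spheroids exposed to compounds for seven days before readout.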
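Wherever viability, T/C is given: 100% = DMSO vehicle control viability as luminescence relative to vehicle.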

On to `CNCc1ccc(-c2[nH]c3cc(F)cc4c3c2CCNC4=O)cc1`, for which the pIC50 was 5.50 and 5.22 and 5.61. Also, the viability, T/C (compound 0.0316 µM) is 87.2% and 101% and 90.9%. In addition, the viability, T/C (compound 0.1 µM) is 82.5% and 98.5% and 90.4%. Further, the viability, T/C (compound 0.316 µM) was 76.4% and 92.6% and 91.3%. For the same compound, the viability, T/C (compound 1 µM) was 75.4% and 90% and 68.9%. Besides, the viability, T/C (compound 3.16 µM) is 49.1% and 76.2% and 44.9%. The viability, T/C (compound 10 µM) is 25% and 30% and 21.1%.

As for `CC1COCCN1c1cc(-c2ccnn2C)c2ccnc(-c3ccn[nH]3)c2n1` (centres undefined), the pIC50 is 6.99 and 7.05 and 6.28. Besides, where the note is “compound 0.0316 µM”, the viability, T/C was 81.5% and 81.3% and 92.4%. The viability, T/C (compound 0.1 µM) is 50% and 45.1% and 76.5%. In addition, the viability, T/C (compound 0.316 µM) was 27.3% and 28.6% and 65.2%. In addition, the viability, T/C (compound 1 µM) was 13.1% and 16% and 35.1%. Further, the viability, T/C (compound 3.16 µM) is 10.7% and 9.53% and 5.15%. Besides, the viability, T/C (compound 10 µM) is 10.5% and 9.86% and 3.76%.

As for `Nc1ccn(C2OC(CO)C(O)C2(F)F)c(=O)n1` (centres undefined), the pIC50 was > 7.50 and 7.35. Besides, the viability, T/C (compound 0.0316 µM) is 20% and 68.1% and 17.7%. For the setting “compound 0.1 µM”, the viability, T/C was 18.2% and 6.89% and 16%. In addition, the viability, T/C (compound 0.316 µM) is 17.5% and 6.81% and 18.4%. In addition, under “compound 1 µM”, the viability, T/C is 19.9% and 6.79% and 18.6%. In addition, the viability, T/C (compound 3.16 µM) is 16.3% and 6.33% and 14.9%. The viability, T/C (compound 10 µM) was 15.8% and 5.46% and 15%.

Take `CCc1cc2c(N3CCc4c(cc(Cn5ccnc5)cc4-c4cn(C)nc4C(F)(F)F)C3=O)ccnc2c(OC)n1`: the pIC50 is 5.48 and < 5.00. Besides, the viability, T/C (compound 0.0316 µM) is 91% and 106% and 101%. For the same compound, the viability, T/C (compound 0.1 µM) was 85.1% and 102% and 98.5%. The viability, T/C (compound 0.316 µM) was 75.5% and 95.9% and 87.7%. The viability, T/C (compound 1 µM) is 61.2% and 86.6% and 91.9%. In addition, the viability, T/C (compound 3.16 µM) was 55.3% and 83.3% and 73.6%. The viability, T/C (compound 10 µM) is 32.2% and 55.7% and 54.7%.

`C=CC(=O)N1CCN(c2nc(=O)n(-c3c(C)ccnc3C(C)C)c3nc(-c4c(O)cccc4F)c(F)cc23)C(C)C1` (centres undefined): the pIC50 was less than 5.00. The viability, T/C (compound 0.0316 µM) was 96.4% and 97.7% and 104%. Further, the viability, T/C (compound 0.1 µM) is 100% and 103% and 90.4%. In addition, under “compound 0.316 µM”, the viability, T/C is 98.7% and 103% and 101%. Besides, the viability, T/C (compound 1 µM) was 105% and 101% and 102%. Besides, the viability, T/C (compound 3.16 µM) is 114% and 103% and 113%. Further, the viability, T/C (compound 10 µM) was 112% and 102% and 108%.

With `O=c1[nH]cc(F)c(=O)[nH]1`, the pIC50 was 5.09 and 5.55 and 5.18. The viability, T/C (compound 0.0316 µM) was 89.3% and 95% and 104%. Also, for the setting “compound 0.1 µM”, the viability, T/C was 103% and 106% and 96%. Moreover, the viability, T/C (compound 0.316 µM) is 92.2% and 102% and 97.8%. The viability, T/C (compound 1 µM) was 84% and 89.3% and 89.6%. For the setting “compound 3.16 µM”, the viability, T/C was 70.4% and 45.9% and 66.5%. For the same compound, under “compound 10 µM”, the viability, T/C is 45.4% and 32.2% and 40.9%.

On to `COc1cc2cc(C(=O)CCC(=O)O)sc2cc1OC`, for which the pIC50 is less than 5.00. Also, the viability, T/C (compound 0.0316 µM) is 92.3% and 91.8% and 112%. The viability, T/C (compound 0.1 µM) is 105% and 102% and 92.5%. For the same compound, where the note is “compound 0.316 µM”, the viability, T/C was 94.3% and 97.6% and 97.8%. Moreover, the viability, T/C (compound 1 µM) was 108% and 109% and 97.7%. For the same compound, the viability, T/C (compound 3.16 µM) was 108% and 107% and 97.8%. Where the note is “compound 10 µM”, the viability, T/C is 97.3% and 104% and 87.3%.
